ChEMBL document CHEMBL1140860, “Synthesis and evaluation of dihydroartemisinin and dihydroartemisitene acetal dimers showing anticancer and antiprotozoal activity” (Bioorg Med Chem, 2009)

How the values were obtained:
[1] = system: NCI/ADR-RES; assay: Growth inhibition of human NCI/ADR-RES cells after 48 hrs by sulforhodamine B assay; type: functional
[2] = system: SK-MEL-2; assay: Growth inhibition of human SK-MEL-2 cells after 48 hrs by sulforhodamine B assay; type: functional; conditions: SK-MEL-2, 48 h
[3] = Cytotoxicity against african green monkey Vero cells after 48 hrs by neutral red assay; type: cell-based; conditions: chlorocebus sabaeus, read-out: TC50
[4] = system: A549; assay: Growth inhibition of human A549 cells after 48 hrs by sulforhodamine B assay; type: functional; conditions: A549, 48 h
[5] = system: Plasmodium falciparum; assay: Antimalarial activity after 72 hrs against chloroquine-sensitive Plasmodium falciparum D6 infected in erythrocytes by LDH assay; type: functional, organism-based; conditions: D6, 72 h
[6] = system: HCT-15; assay: Growth inhibition of human HCT15 cells after 48 hrs by sulforhodamine B assay; type: functional; conditions: HCT-15, 48 h
[7] = system: SNB-19; assay: Growth inhibition of human SNB19 cells after 48 hrs by sulforhodamine B assay; type: functional; conditions: SNB-19, 48 h
[8] = system: HL-60; assay: Growth inhibition of human HL-60(TB) cells after 48 hrs by sulforhodamine B assay; type: functional; conditions: HL-60, 48 h
[9] = system: COLO 205; assay: Growth inhibition of human COLO205 cells after 48 hrs by sulforhodamine B assay; type: functional; conditions: COLO 205, 48 h
[10] = system: SK-MEL-5; assay: Growth inhibition of human SK-MEL-5 cells after 48 hrs by sulforhodamine B assay; type: functional; conditions: SK-MEL-5, 48 h
[11] = system: HT-29; assay: Growth inhibition of human HT-29 cells after 48 hrs by sulforhodamine B assay; type: functional; conditions: HT-29, 48 h
[12] = system: HOP-62; assay: Growth inhibition of human HOP62 cells after 48 hrs by sulforhodamine B assay; type: functional; conditions: HOP-62, 48 h
[13] = system: 786-0; assay: Growth inhibition of human 786-0 cells after 48 hrs by sulforhodamine B assay; type: functional; conditions: 786-0, 48 h
[14] = system: HCT-116; assay: Growth inhibition of human HCT116 cells after 48 hrs by sulforhodamine B assay; type: functional; conditions: HCT-116, 48 h
[15] = system: IGROV-1; assay: Growth inhibition of human IGROV1 cells after 48 hrs by sulforhodamine B assay; type: functional; conditions: IGROV-1, 48 h
[16] = system: SR; assay: Growth inhibition of human SR cells after 48 hrs by sulforhodamine B assay; type: functional
[17] = system: MDA-N; assay: Growth inhibition of human MDA-N cells after 48 hrs by sulforhodamine B assay; type: functional
[18] = system: HCC 2998; assay: Growth inhibition of human HCC2998 cells after 48 hrs by sulforhodamine B assay; type: functional; conditions: HCC 2998, 48 h
[19] = system: OVCAR-8; assay: Growth inhibition of human OVCAR8 cells after 48 hrs by sulforhodamine B assay; type: functional; conditions: OVCAR-8, 48 h
[20] = system: UO-31; assay: Growth inhibition of human UO31 cells after 48 hrs by sulforhodamine B assay; type: functional; conditions: UO-31, 48 h
[21] = system: UACC-257; assay: Growth inhibition of human UACC257 cells after 48 hrs by sulforhodamine B assay; type: functional; conditions: UACC-257, 48 h
[22] = system: Plasmodium falciparum; assay: Antimalarial activity after 72 hrs against chloroquine-resistant Plasmodium falciparum W2 infected erythrocytes by LDH assay; type: functional, organism-based; conditions: W2, 72 h
[23] = system: NCI-H23; assay: Growth inhibition of human NCI-H23 cells after 48 hrs by sulforhodamine B assay; type: functional; conditions: NCI-H23, 48 h
[24] = system: M14; assay: Growth inhibition of human M14 cells after 48 hrs by sulforhodamine B assay; type: functional; conditions: M14, 48 h
[25] = system: CAKI-1; assay: Growth inhibition of human Caki1 cells after 48 hrs by sulforhodamine B assay; type: functional; conditions: CAKI-1, 48 h
[26] = system: TK-10; assay: Growth inhibition of human TK10 cells after 48 hrs by sulforhodamine B assay; type: functional; conditions: TK-10, 48 h
[27] = system: HOP-92; assay: Growth inhibition of human HOP92 cells after 48 hrs by sulforhodamine B assay; type: functional; conditions: HOP-92, 48 h
[28] = system: A498; assay: Growth inhibition of human A498 cells after 48 hrs by sulforhodamine B assay; type: functional; conditions: A498, 48 h
[29] = system: UACC-62; assay: Growth inhibition of human UACC62 cells after 48 hrs by sulforhodamine B assay; type: functional; conditions: UACC-62, 48 h
[30] = system: ACHN; assay: Growth inhibition of human ACHN cells after 48 hrs by sulforhodamine B assay; type: functional
[31] = system: OVCAR-3; assay: Growth inhibition of human OVCAR-3 cells after 48 hrs by sulforhodamine B assay; type: functional; conditions: OVCAR-3, 48 h
[32] = system: EKVX; assay: Growth inhibition of human EKVX cells after 48 hrs by sulforhodamine B assay; type: functional
[33] = system: MOLT-4; assay: Growth inhibition of human MOLT4 cells after 48 hrs by sulforhodamine B assay; type: functional; conditions: MOLT-4, 48 h
[34] = system: SF-295; assay: Growth inhibition of human SF295 cells after 48 hrs by sulforhodamine B assay; type: functional; conditions: SF-295, 48 h
[35] = system: SK-MEL-28; assay: Growth inhibition of human SK-MEL-28 cells after 48 hrs by sulforhodamine B assay; type: functional; conditions: SK-MEL-28, 48 h
[36] = system: DU-145; assay: Growth inhibition of human DU145 cells after 48 hrs by sulforhodamine B assay; type: functional; conditions: DU-145, 48 h
[37] = system: CCRF-CEM; assay: Growth inhibition of human CCRF-CEM cells after 48 hrs by sulforhodamine B assay; type: functional
[38] = Selectivity index, ratio of TC50 for african green monkey (Cercopithecus aethiops) Vero cells to IC50 for chloroquine-sensitive Plasmodium falciparum D6; type: toxicity, cell-based
[39] = system: MCF7; assay: Growth inhibition of human MCF7 cells after 48 hrs by sulforhodamine B assay; type: functional; conditions: MCF7, 48 h
[40] = Growth inhibition of human Hs 578T cells after 48 hrs by sulforhodamine B assay; type: functional
[41] = system: SK-OV-3; assay: Growth inhibition of human SKOV3 cells after 48 hrs by sulforhodamine B assay; type: functional; conditions: SK-OV-3, 48 h
[42] = system: SN12C; assay: Growth inhibition of human SN12C cells after 48 hrs by sulforhodamine B assay; type: functional
[43] = system: SW-620; assay: Growth inhibition of human SW620 cells after 48 hrs by sulforhodamine B assay; type: functional; conditions: SW-620, 48 h
[44] = system: NCI-H322M; assay: Growth inhibition of human NCI-H322M cells after 48 hrs by sulforhodamine B assay; type: functional
[45] = system: SF-268; assay: Growth inhibition of human SF268 cells after 48 hrs by sulforhodamine B assay; type: functional; conditions: SF-268, 48 h
[46] = system: BT-549; assay: Growth inhibition of human BT549 cells after 48 hrs by sulforhodamine B assay; type: functional; conditions: BT-549, 48 h
[47] = system: MDA-MB-435; assay: Growth inhibition of human MDA-MB-435 cells after 48 hrs by sulforhodamine B assay; type: functional; conditions: MDA-MB-435, 48 h
[48] = system: OVCAR-5; assay: Growth inhibition of human OVCAR5 cells after 48 hrs by sulforhodamine B assay; type: functional; conditions: OVCAR-5, 48 h
[49] = system: T47D; assay: Growth inhibition of human T47D cells after 48 hrs by sulforhodamine B assay; type: functional
[50] = system: SF-539; assay: Growth inhibition of human SF539 cells after 48 hrs by sulforhodamine B assay; type: functional; conditions: SF-539, 48 h
[51] = system: K562; assay: Growth inhibition of human K562 cells after 48 hrs by sulforhodamine B assay; type: functional; conditions: K562, 48 h
[52] = system: PC-3; assay: Growth inhibition of human PC3 cells after 48 hrs by sulforhodamine B assay; type: functional; conditions: PC-3, 48 h
[53] = system: Malme-3M; assay: Growth inhibition of human MALME-3M cells after 48 hrs by sulforhodamine B assay; type: functional
[54] = system: RXF 393; assay: Growth inhibition of human RXF393 cells after 48 hrs by sulforhodamine B assay; type: functional; conditions: RXF 393, 48 h
[55] = system: KM12; assay: Growth inhibition of human KM12 cells after 48 hrs by sulforhodamine B assay; type: functional; conditions: KM12, 48 h
[56] = system: U-251; assay: Growth inhibition of human U251 cells after 48 hrs by sulforhodamine B assay; type: functional; conditions: U-251, 48 h
[57] = system: MDA-MB-231; assay: Growth inhibition of human MDA-MB-231 cells after 48 hrs by sulforhodamine B assay; type: functional; conditions: MDA-MB-231, 48 h
[58] = Growth inhibition of human […] cells after 48 hrs by sulforhodamine B assay; type: functional
[59] = system: OVCAR-4; assay: Growth inhibition of human OVCAR4 cells after 48 hrs by sulforhodamine B assay; type: functional; conditions: OVCAR-4, 48 h
[60] = system: NCI-H522; assay: Growth inhibition of human NCI-H522 cells after 48 hrs by sulforhodamine B assay; type: functional; conditions: NCI-H522, 48 h
[61] = system: NCI-H460; assay: Growth inhibition of human NCI-H460 cells after 48 hrs by sulforhodamine B assay; type: functional; conditions: NCI-H460, 48 h
[62] = Selectivity index, ratio of TC50 for african green monkey (Cercopithecus aethiops) Vero cells to IC50 for chloroquine-resistant Plasmodium falciparum W2; type: toxicity, cell-based
[63] = system: HUVEC; assay: Antiangiogenic activity against HUVEC assessed as inhibition of VEGF-induced cell migration by NCI antiangiogenesis assay; type: functional, cell-based; conditions: Homo sapiens
[64] = system: HUVEC; assay: Antiangiogenic activity against HUVEC assessed as growth inhibition by NCI antiangiogenesis assay; type: functional, cell-based; conditions: Homo sapiens
[65] = system: HUVEC; assay: Antiangiogenic activity against HUVEC assessed as inhibition of capillary-like structure formation by NCI antiangiogenesis assay; type: functional, cell-based; conditions: Homo sapiens

C=C1[C@@H](OCCCO[C@H]2O[C@@H]3O[C@@]4(C)CC[C@H]5[C@H](C)CC[C@@H](C2=C)[C@@]35OO4)O[C@@H]2O[C@@]3(C)CC[C@H]4[C@H](C)CC[C@@H]1[C@@]24OO3
GI50 [1]: 533 nM | GI50 [2]: 3140 nM | CC50 at 48 h [3]: > 806000 nM | GI50 [4]: 5330 nM | IC50 [5]: 18600 nM | GI50 [6]: 12 nM | GI50 [7]: 11100 nM | GI50 [8]: 98 nM | GI50 [9]: 122 nM | GI50 [10]: 496 nM | GI50 [11]: 43 nM | GI50 [12]: 6880 nM | GI50 [13]: 346 nM | GI50 [14]: 27 nM | GI50 [15]: 622 nM | GI50 [16]: 28 nM | GI50 [17]: 518 nM | GI50 [18]: 5980 nM | GI50 [19]: 372 nM | GI50 [20]: 181 nM | GI50 [21]: 479 nM | IC50 [22]: 5100 nM | GI50 [23]: 1070 nM | GI50 [24]: 205 nM | GI50 [25]: 1770 nM | GI50 [26]: 218 nM | GI50 [27]: 745 nM | GI50 [28]: > 50000 nM | GI50 [29]: 7200 nM | GI50 [30]: 6380 nM | GI50 [31]: 107 nM | GI50 [32]: 476 nM | GI50 [33]: 121 nM | GI50 [34]: 7650 nM | GI50 [35]: 6070 nM | GI50 [36]: 7590 nM | GI50 [37]: 97 nM | selectivity ratio [38]: > 43 | GI50 [39]: 150 nM | GI50 [40]: 74 nM | GI50 [41]: 10900 nM | GI50 [42]: 7300 nM | GI50 [43]: 62 nM | GI50 [44]: 11200 nM | GI50 [45]: 6290 nM | GI50 [46]: 7520 nM | GI50 [47]: 443 nM | GI50 [48]: 5040 nM | GI50 [49]: 14 nM | GI50 [50]: 5340 nM | GI50 [51]: 50 nM | GI50 [52]: 63 nM | GI50 [53]: 7280 nM | GI50 [54]: 6460 nM | GI50 [55]: 94 nM | GI50 [56]: 288 nM | GI50 [57]: 13100 nM | GI50 [58]: 13 nM | GI50 [59]: 73 nM | GI50 [60]: 401 nM | GI50 [61]: 5440 nM | selectivity ratio [62]: > 159

CO[C@@H]1[C@H](OC(=O)NC(=O)CCl)CC[C@]2(CO2)[C@H]1[C@@]1(C)O[C@@H]1CC=C(C)C [O-CHLOROACETYLCARBAMOYLFUMAGILLOL]
IC50 [63]: 500 nM | IC50 [64]: 3160 nM | IC50 [65]: 1000 nM

CC(=O)O[C@H]1C(=O)[C@@]2(C)[C@H]([C@H](OC(=O)c3ccccc3)[C@]3(O)C[C@H](OC(=O)[C@H](O)[C@@H](NC(=O)c4ccccc4)c4ccccc4)C(C)=C1C3(C)C)[C@]1(OC(C)=O)CO[C@@H]1C[C@@H]2O [PACLITAXEL]
IC50 [63]: 100 nM | IC50 [64]: 1650 nM | IC50 [65]: 50 nM
